Six compounds from patent publication US10526357B2, “Pharmaceutical compounds” (Rafael Pharmaceuticals, Inc., priority 2014, dated 2020) can be followed below.

Holding throughout (assay type): cell-based
Assay [1] deals with H460 non small lung carcinoma cells. As to the kind of experiment: CellTiter Glo (CTG) cell viability assay, in vitro cell killing, H460. The settings on record: Homo sapiens, 24 h treatment, 0.5% serum and 0.05% DMSO, relative to untreated control; for viability at 50 µM: NCI-H460, 50 μM, read-out: % avg live cells @ 50 μM (% Viable Cells Remaining); for viability at 100 µM: NCI-H460, 100 μM, read-out: % avg live cells @ 100 μM (% Viable Cells Remaining). An excerpt:
(§1) The objective of this investigation was to assess the in vitro cell killing activities of analogs of lipoic acid in BXPC3 human pancreatic, H460 non small lung carcinoma, and SF539 human gliosarcoma cancer cells.
(§2) Three human tumor cell types, BXPC3 human pancreatic cancer, H460 non small lung carcinoma, and SF539 human gliosarcoma, were used in this investigation. The BXPC3 and H460 cells were originally obtained from American Type Cell Culture (ATCC). The SF539 cells were originally obtained from the NCI AIDS and Cancer Specimen Bank (ACSB). All tumor cells were maintained at 37° C. in a humidified 5% CO2 atmosphere in T75 tissue culture flasks containing 20 mL of Roswell Park Memorial Institute (RPMI) 1640 containing 2 mM L-glutamine, 10% FBS and 1% penicillin and streptomycin (100 IU/mL penicillin and 100 μg/mL streptomycin). The tumor cells were split at a ratio of 1:5 every 4-5 days by trypsinization and resuspended in fresh medium in a new flask. Cells were harvested for experiments at 70-90% confluency.
(§3) Stock solutions of each analog were prepared at a concentration of 200 and 100 mM in DMSO. Five μL of this solution was diluted in 10.0 mL of 0.5% serum containing RPMI media to give the desired 100 μM and 50 μM solutions in 0.05% DMSO.
(§4) The cancer cells were seeded at 4000 cells/well for H460 cells and 6000 cells/well for BXPC3 and SF 539 cells and incubated 24 hours. The killing activity of analogs was assayed at 50 μM and 100 μM concentrations. The tumor cells were treated for 24 hours with the test article, and after 24 hours of treatment the number of viable tumor cells was determined using the CTG assay.
(§5) The number of cells targeted for the study is 4×10^3 per well for H460 cells and 6×10^3 per well for BXPC3 and SF539 cells in 100 μL of medium. The actual number of cells were counted and seeded in the wells of a 96 well-plate. The cells were incubated for approximately 24 hours before addition of test article.
(§6) The media in the plate was removed by aspiration, and 100 μL of the test article at a final concentration of 50 μM or 100 μM was added to the cells. After exposure to the test articles for 24 hours, the number of viable cells in each well was determined and the percent of viable cells relative to control (in the absence of test article) were calculated. Additionally, a set of wells was treated with cell culture medium in the absence of cells to obtain a value for background luminescence. A separate set of cells was seeded at the same time in a clear 96-well plate and observed under the microscope at 24 hours, following addition of the test article to estimate the amount of cells present after treatment.
(§7) The number of viable cells was determined by using the CTG assay. Specifically, reagents were mixed and allowed to come to room temperature according to instructions from Promega, Inc. (Madison, Wis.). Cell plates were removed from the cell culture incubator and left on the bench for thirty minutes until they reached room temperature. 100 μL per well of CTG reagent was added with the 12-channel Eppendorf pipettor. The cells were lysed by shaking the plate for two minutes in a shaker. The cells were kept in room temperature for ten minutes to stabilize the luminescent signal. The luminescence was measured using the FLUOstar OPTIMA plate reader (BMG Labtech, Inc., Durham, N.C.).
(§8) Data from luminescence readings was copied onto EXCEL spreadsheets, and cell growth relative to untreated cells was calculated, using the following equation: […]
A general note: In ATP-based viability assays light output follows the ATP content of the culture.

Assay [2] deals with SF539 human gliosarcoma cells. The assay can be described thus: CellTiter Glo (CTG) cell viability assay, in vitro cell killing, SF539. Particulars: 24 h treatment, 0.5% serum and 0.05% DMSO, relative to untreated control; for viability at 50 µM: SF-539, 50 μM, read-out: % avg live cells @ 50 μM (% Viable Cells Remaining); for viability at 100 µM: SF-539, 100 μM, read-out: % avg live cells @ 100 μM (% Viable Cells Remaining).
Description: as §1, §2, §3, §4, §5, §6, §7, §8

Assay [3] concerns BXPC3 human pancreatic cancer cells. As to the kind of experiment: CellTiter Glo (CTG) cell viability assay, in vitro cell killing, BXPC3. The settings on record: 24 h treatment, 0.5% serum and 0.05% DMSO, relative to untreated control; for viability at 50 µM: BXPC-3, 50 μM, read-out: % avg live cells @ 50 μM (% Viable Cells Remaining); for viability at 100 µM: BXPC-3, 100 μM, read-out: % avg live cells @ 100 μM (% Viable Cells Remaining).
Description: as §1, §2, §3, §4, §5, §6, §7, §8

Consider `CCCCCCC(CCSCc1ccccc1)SCc1ccccc1` (stereo not drawn) [A], for which the viability at 50 µM was 89% in assay [1], 100% in assay [2] and 84% in assay [3]. Further, the values for the viability at 100 µM in assay [1], in assay [2] and in assay [3] were 70%, 98% and 75%, respectively.
For `COCCCCCC(CCSCc1ccccc1)SCc1ccccc1` (stereo not drawn) [B], the viability at 50 µM in assay [1] turned out to be 97%; in assay [2], 99%; in assay [3] it was 84%. Moreover, the viability at 100 µM is 67% in assay [1], 99% in assay [2] and 91% in assay [3].
Take `N#CCCCCC(CCSCc1ccccc1)SCc1ccccc1` (stereo not drawn) [C]: the viability at 50 µM worked out at 69.8% in assay [1], 74.9% in assay [2] and 70.9% in assay [3]. Further, the viability at 100 µM was found to be 27.1% in assay [1], 23.2% in assay [2] and 36.1% in assay [3].
Regarding `c1ccc(CSCCC(CCCCc2nn[nH]n2)SCc2ccccc2)cc1` (stereo not drawn) [D], the viability at 50 µM in assay [1] stood at 4.1%; in assay [2], 2.1%; in assay [3], 0.3%. The viability at 100 µM was found to be 2.7% in assay [1], 0.1% in assay [2] and 3.9% in assay [3].
As to `O=S(=O)(O)CCCCC(CCSCc1ccccc1)SCc1ccccc1` (stereo not drawn) [E], the viability at 50 µM in assay [1], in assay [2] and in assay [3] was 0% in each case. For the same compound, the viability at 100 µM is 0.3% in assay [1], 0% in assay [2] and 0% in assay [3].
With `O=C(O)CCOCC(CCSCc1ccccc1)SCc1ccccc1` (stereo not drawn) [G], the values for the viability at 50 µM in assay [1], in assay [2] and in assay [3] were 102%, 91.6% and 99.7%, respectively. The viability at 100 µM is 37.6% in assay [1], 30.3% in assay [2] and 41.7% in assay [3].
